These results are taken from article PMC7532663, “Pharmacological inhibition of mTORC1 increases CCKBR-specific tumor uptake of radiolabeled minigastrin analogue [^177Lu]Lu-PP-F11N” (Theranostics, 2020).

The test system of assay [1] is A431/CCKBR cells. Put plainly: CellTiter 96 AQueous (MTS) proliferation assay. Type of assay: cell-based, human.
Assay [2] deals with A431/CCKBR-tumor bearing nude mice. As to conditions: co-injection of 60 nmol minigastrin.
The mark [3] stands for this setting: 10 μM kinase inhibitor, MTS absorbance at 570 nm, reference 650 nm, mean of triplicate.

Read-outs that look alike come from different tables or passages of the source.

Consider `CCCCCCCCCCCCCCCC(=O)OC(CC(=O)[O-])C[N+](C)(C)C` (racemic) [Palmitoyl-DL-carnitine], for which, in assay [1] (setting [3]), the “Proliferation [A570]” value came out at 0.91.
Consider `COCc1cc(O)c(O)c(O)c1-c1c(COC)cc(O)c(O)c1O` [2,2',3,3',4,4'-Hexahydroxy-1,1'-biphenyl-6,6'-dimethanol dimethyl ether], for which the “Proliferation [A570]” value in assay [1] stood at 0.98.
For `Nc1ncc2[nH]cnc2n1` [2-Am inopurine], in assay [1] (setting [3]), the “Proliferation [A570]” value came out at 0.96.
The same measure, in the same setting: as for `O=C(O)c1cc(NCc2cc(O)ccc2O)ccc1O` [2-Hydroxy-5-(2,5-dihydroxybenzylamino)benzoi c acid], the figure is 1.01.
Consider `OC[C@H]1O[C@@H](n2cnc3cc(Cl)c(Cl)cc32)[C@H](O)[C@@H]1O` [5,6-dichloro-1-β-D-ribofuranosylben zimidazole], for which the “Proliferation [A570]” value in assay [1] is recorded as 0.99.
As to `Nc1ncnc2c1c(I)cn2[C@@H]1O[C@H](CO)[C@@H](O)[C@H]1O` [5-Iodotubericidin], in assay [1] (setting [3]), the “Proliferation [A570]” value stood at 1.15.
On the same count and under the same terms, in the case of `N#CC(C#N)=Cc1ccc([N+](=O)[O-])c(O)c1` [AG-1 26] it was 1.01; in that of `N#CC(=Cc1ccc2[nH]ccc2c1)C(N)=C(C#N)C#N` [AG-3 70], 0.97.
Same read-out and setting: as for `N#C/C(=C\c1ccc(O)c(O)c1)C(=O)NCc1ccccc1` [AG-4 90], the figure is 1.03; as for `N#C/C(=C\c1ccc(O)c(O)c1)C(=O)Nc1ccccc1` [AG-4 94], 0.97; as for `COc1cc(/C=C(\C#N)C(N)=O)cc(CSc2nc3ccccc3s2)c1O` [AG-8 25], 0.80.
Regarding `CC(C)(C)c1cc(/C=C(\C#N)C(N)=S)cc(C(C)(C)C)c1O` [AG-8 79], in assay [1] (setting [3]), the “Proliferation [A570]” value is recorded as 0.80.
Same read-out and setting: as for `COc1cc2ncc(-c3ccccc3)nc2cc1OC` [AG-1296], the figure is 0.94; as for `O=c1cc(-c2ccc(O)cc2)oc2cc(O)cc(O)c12` [Apigenin], 0.90; as for `Cc1ccc(S(=O)(=O)/C=C/C#N)cc1` [BAY 11-7082], 1.14.
On the same count and under the same terms, in the case of `CC(C)c1cnc(NC(=O)Cc2ccccc2)s1` [BML-259] it was 1.09.
Consider `CCCCCCCCCCCCC/C=C/[C@@H](O)[C@@H](N)CO` [D-erythro-Sphingosine], for which the “Proliferation [A570]” value in assay [1] stood at 0.96.
As for `O=c1c(-c2ccc(O)cc2)coc2cc(O)ccc12` [Daidzein], in assay [1] (setting [3]), the “Proliferation [A570]” value was found to be 0.92.
On the same count and under the same terms, as for `COC(=O)/C=C/c1cc(O)ccc1O` [Erbstatin analog], the figure is 1.12.
On the same count and under the same terms, as for `CN(C)CCCn1cc(C2=C(c3c[nH]c4ccccc34)C(=O)NC2=O)c2ccccc21` [GF 109203X], the figure is 0.95; as for `O=C1Nc2ccc(I)cc2/C1=C/c1cc(Br)c(O)c(Br)c1` [GW 5074], 0.93; as for `O=c1c(-c2ccc(O)cc2)coc2cc(O)cc(O)c12` [Genistein], 0.95.
Turning to `CC1CNCCN1S(=O)(=O)c1cccc2cnccc12.Cl.Cl` (stereo not shown) [H-7·2HCl], in assay [1] (setting [3]), the “Proliferation [A570]” value came to 0.98.
Same read-out and setting: in the case of `CNCCNS(=O)(=O)c1cccc2cnccc12` [H-8] it was 0.99; in that of `Cl.NCCNS(=O)(=O)c1cccc2cnccc12` [H-9·HCl], 1.03; in that of `Cl.Cl.O=S(=O)(NCCNC/C=C/c1ccc(Br)cc1)c1cccc2cnccc12` [H-89·2HCl], 0.97.
Same read-out and setting: as for `Cl.NC(N)=NCCNS(=O)(=O)c1cccc2cnccc12` [HA-1004·HCl], the figure is 1.05; as for `Cl.Cl.O=S(=O)(c1cccc2cnccc12)N1CCCNCC1` [HA-1077·2HCl], 0.99.
On the same count and under the same terms, in the case of `O=P(O)(O)C(O)c1ccc2ccccc2c1` (stereo not shown) [Hydroxy-2-naphthalenylmethylphosp honic acid] it was 1.00; in that of `Cc1cc(O)c2c(=O)c3c(O)cc(O)c4c5c(O)cc(O)c6c(=O)c7c(O)cc(C)c8c1c2c(c34)c(c78)c65` [Hypericin], 0.93.
For the compound `O=C1Nc2ccccc2/C1=C1/Nc2ccccc2/C1=N\O` [Indirubin-3'-monooxime], the “Proliferation [A570]” value in assay [1] (setting [3]) stood at 0.87.
For `O=C1Nc2ccccc2/C1=C1/Nc2ccccc2C1=O` [Indirubin], in assay [1] (setting [3]), the “Proliferation [A570]” value stood at 1.09.
In the case of `Cn1cnc2nc(NCCO)nc(NCc3ccccc3)c21` [Iso-olomoucine], the “Proliferation [A570]” value in assay [1] (setting [3]) is listed as 0.96.
Still for that read-out and setting: as for `CN([C@@H](Cc1ccc(OS(=O)(=O)c2cccc3cnccc23)cc1)C(=O)N1CCN(c2ccccc2)CC1)S(=O)(=O)c1cccc2cnccc12` [KN-62], the figure is 0.82; as for `COc1ccc(S(=O)(=O)N(CCO)c2ccccc2CN(C)C/C=C/c2ccc(Cl)cc2)cc1` [KN-93], 0.92.
The same measure, in the same setting: as for `O=C1Cc2c([nH]c3ccc(Br)cc23)-c2ccccc2N1` [Kenpaullone], the figure is 0.99.
As to `C/C(O)=C(\C#N)C(=O)Nc1cc(Br)ccc1Br` [LFM-A13], in assay [1], the “Proliferation [A570]” value was 0.93.
With `O=c1cc(N2CCOCC2)oc2c(-c3ccccc3)cccc12` [LY 294002], in assay [1] (setting [3]), the “Proliferation [A570]” value came out at 0.92.
On the same count and under the same terms, in the case of `O=C(O)c1cc(N(Cc2ccccc2O)Cc2cc(O)ccc2O)ccc1O` [Lavendustin A] it was 1.15.
Same read-out and setting: as for `Cl.O=S(=O)(c1cccc2c(I)cccc12)N1CCCNCC1` [ML-7·HCl], the figure is 0.95.
In the case of `Cl.O=S(=O)(c1cccc2c(Cl)cccc12)N1CCCNCC1` [ML-9·HCl], the “Proliferation [A570]” value in assay [1] (setting [3]) turned out to be 0.94.
On the same count and under the same terms, as for `CC(C)n1cnc2c(NCc3ccccc3)nc(NCCO)nc21` [N9-isopropyl-olomoucine], the figure is 0.93; as for `Cn1cnc2c(NCc3ccccc3)nc(NCCO)nc21` [Olomoucine], 0.98; as for `COc1cccc(-c2cc(=O)c3ccccc3o2)c1N` [PD-98059], 1.01.
On the same count and under the same terms, in the case of `CO[C@@H]1[C@H](N(C)C(=O)c2ccccc2)C[C@H]2O[C@]1(C)n1c3ccccc3c3c4c(c5c6ccccc6n2c5c31)C(=O)NC4` [PKC-4 12] it was 0.78; in that of `Cc1ccc(-c2nn(C(C)(C)C)c3ncnc(N)c23)cc1` [PP1], 0.80; in that of `CC(C)(C)n1nc(-c2ccc(Cl)cc2)c2c(N)ncnc21` [PP2], 0.86.
`Oc1cc(O)cc(/C=C/c2ccc(O)c(O)c2)c1` [Piceatannol]: the “Proliferation [A570]” value in assay [1] (setting [3]) came out at 1.02.
`O.O.O=c1c(O)c(-c2ccc(O)c(O)c2)oc2cc(O)cc(O)c12` [Quercetin·2H2O]: the “Proliferation [A570]” value in assay [1] was 1.03.
Consider `CS(=O)(=O)O.Cn1cc(C2=C(c3cn(CCCSC(=N)N)c4ccccc34)C(=O)NC2=O)c2ccccc21` [Ro 31-8220 mesylate], for which the “Proliferation [A570]” value in assay [1] (setting [3]) was found to be 0.51.
Take `CC[C@H](CO)Nc1nc(NCc2ccccc2)c2ncn(C(C)C)c2n1` [Roscovi tine]: the “Proliferation [A570]” value in assay [1] came to 0.91.
As for `CC(=O)c1c(O)c(C)c(O)c(Cc2c(O)c3c(c(C(=O)/C=C/c4ccccc4)c2O)OC(C)(C)C=C3)c1O` [Rottle rin], the “Proliferation [A570]” value in assay [1] (setting [3]) was found to be 0.64.
Same read-out and setting: in the case of `Oc1ccc(-c2nc(-c3ccncc3)c(-c3ccc(F)cc3)[nH]2)cc1` [SB-202190] it was 1.02.
As for `C[S+]([O-])c1ccc(-c2nc(-c3ccncc3)c(-c3ccc(F)cc3)[nH]2)cc1` (stereo not shown) [SB-203580], the “Proliferation [A570]” value in assay [1] was 0.95.
On to `Oc1c2ccccc2c2c3c(cccc13)N=N2` [SP 600125], for which the “Proliferation [A570]” value in assay [1] (setting [3]) is recorded as 0.77.
On the same count and under the same terms, as for `CC(C)c1cc(/C=C(\C#N)C(=O)NCCCc2ccccc2)cc(C(C)C)c1O` [SU1498], the figure is 0.98.
The same measure, in the same setting: as for `CN(C)c1ccc(/C=C2\C(=O)Nc3ccccc32)cc1` [SU 4312], the figure is 0.97; as for `CN[C@@H]1C[C@H]2O[C@@](C)([C@@H]1OC)n1c3ccccc3c3c4c(c5c6ccccc6n2c5c31)C(=O)NC4` [Staurosporine], 0.51.
In the case of `CC(C)(C)c1cc(C=C(C#N)C#N)cc(C(C)(C)C)c1O` [TYRPHOSTIN 9], in assay [1] (setting [3]), the “Proliferation [A570]” value stood at 0.62.
Take `N#CC(C#N)=Cc1ccc(O)c(O)c1` [TYRPHOSTIN 23]: the “Proliferation [A570]” value in assay [1] (setting [3]) is recorded as 1.07.
The same measure, in the same setting: in the case of `N#CC(C#N)=Cc1cc(O)c(O)c(O)c1` [TYRPHOSTIN 25] it was 1.12; in that of `N#C/C(=C\c1ccc(O)c(O)c1)C(N)=O` [TYRPHOSTIN 46], 1.04.
`N#C/C(=C\c1ccc(O)c(O)c1)C(N)=S` [TYRPHOSTIN 47]: the “Proliferation [A570]” value in assay [1] was 0.98.
Regarding `N#CC(C#N)=C(N)/C(C#N)=C/c1cc(O)c(O)c(O)c1` [TYRPHOSTIN 51], the “Proliferation [A570]” value in assay [1] (setting [3]) was 1.05.
The same measure, in the same setting: in the case of `N#CC(C#N)=Cc1cc(O)c(O)c([N+](=O)[O-])c1` [TYRPHOSTIN AG 1288] it was 0.97; in that of `Cc1cc2ncc(-c3ccccc3)nc2cc1C` [TYRPHOSTIN AG 1295], 0.94; in that of `COc1cc2ncnc(Nc3cccc(Cl)c3)c2cc1OC` [TYRPHOSTIN AG 1478], 0.72.
Turning to `CC1=C(O)C(=O)[C@@H]2O[C@@H]2C1=O` [Terreic acid], the “Proliferation [A570]” value in assay [1] turned out to be 1.06.
Take `N#CC(=C(/N)Sc1ccccc1N)/C(C#N)=C(/N)Sc1ccccc1N` [U-0126]: the “Proliferation [A570]” value in assay [1] (setting [3]) was determined as 0.87.
`COC[C@H]1OC(=O)c2coc3c2[C@@]1(C)C1=C(C3=O)[C@@H]2CCC(=O)[C@@]2(C)C[C@H]1OC(C)=O` [Wortmannin]: the “Proliferation [A570]” value in assay [1] (setting [3]) is on record as 0.86.
Same read-out and setting: as for `C[C@@H](N)[C@H]1CC[C@H](C(=O)Nc2ccncc2)CC1.Cl.Cl` [Y-27632·2HCl], the figure is 1.02; as for `Cc1ccc(NC(=O)c2cccc(N(C)C)c2)cc1NC(=O)c1ccc(O)cc1` [ZM 336372], 0.87.
With `C=CC(=O)c1ccc2ccccc2c1` [ZM 449829], the “Proliferation [A570]” value in assay [1] (setting [3]) was determined as 0.98.
BML-265: the “Proliferation [A570]” value in assay [1] (setting [3]) stood at 0.78.
On to LEEEEEAYGWMDF [minigastrin], for which, in assay [2], the “[177Lu]Lu-PP-F11N kidney uptake with blocking” value is “not affected”; the “[177Lu]Lu-PP-F11N uptake in the tumor and stomach with blocking” value is reported as “reduced”.
